Reference: US20240009203A1, “COMPOSITIONS AND METHODS FOR TREATING ALZHEIMER'S DISEASE” (Cedars-Sinai Medical Center, priority 2020, published 2024)

Legend:
ADtg mice [1] = assay: Fear conditioning test; type: in vivo
Description: (§1) Wildtype and ADtg mice (18 months, males and females) were treated with ETP69 or vehicle (DMSO-saline) to test the effects of ETP69 in improving cognition in a mouse model of Alzheimer's disease. On day 1, mice were treated with an injection of 10 mg/kg ETP69 of vehicle. Then starting on day 2, mice were tested in various behavioral tests, including Y-maze, visual test alternation, Open Field-Barnes Maze, and/or fear conditioning. On either day 4 or day 19 mice were sacrificed, and tissues analyzed for histone trimethylation levels, A-beta levels, immunohistochemistry (GFAP, IGF1), Spine count (Golgi-Cox staining), —Neurotrophic support and synaptic markers.
The results of the fear conditioning test indicate spatial memory.
(§2) The effects of single and repeated ETP69 injections in mice were tested. The experimental timeline is depicted in FIG. 8. Three parallel injection conditions were tested: a single ETP69 condition, a boosted ETP69 injection, and repeated ETP69 injections, as depicted in Table 2. The single injection mice received one injection of ETP69 or DMSO at Day 0. The mice that received a boosted injection received one injection of ETP69 or DMSO at day 0 and one injection at day 9. The mice that received repeated injections received 11 injections of ETP69 or DMSO at day 0 or day 9. Both wildtype and AD model (APP/PS1-transgenic) mice were tested.
(§3) The effects of ETP69 injections in 14 month old mice was tested. Wildtype mice were divided into 2 treatment groups, mice that received an ETP69 injection (n=10) and mice that received a DMSO injection (N=10). AD+ mice were divided into 2 treatment groups, mice that received an ETP69 injection (n=8) and mice that received a DMSO injection (N=7). The experimental protocol is depicted in FIG. 15.
The fear conditioning test was used to indicate spatial memory.

VGF = VGF expression in hippocampus; type: in vivo; conditions: dentate gyrus and other hippocampal regions, 18-mo-old AD-Tg mice, single ETP69 injection (FIG. 22)
Description: (§4) Expression of VGF, BDNF, and NCAM was analyzed in 18-month AD+ mice following a single ETP69 injection. Representative images are depicted in FIG. 22.

[2] = tested on: cerebral macrophages, microglia, and astrocytes; assay: Effects on cerebral inflammatory cells (FIG. 21A-21L); type: in vivo; conditions: AD+ mice (FIG. 21A-21L)
From the text: These phagocytic inflammatory cells may be involved in immune activation and clearing toxic Aβ. Restoring a young phenotype may explain reduced neuroinflammation and Aβ plaques in the ETP69 treated AD+ mice.

H3K9me3 = H3K9me3 brain staining and quantification; type: in vivo, mice
From the text: (§5) 18 month old AD+ mice brains were stained for neuronal H3K9me3 and DAPI. FIG. 14A is a representative image of the H3K9me3 signal across cortical layers. FIG. 14B is a representative image comparing ETP69 treated and DMSO control brains. […] FIG. 14D depicts immunohistochemistry of 6E10+ amyloid-beta plaques and GFAP+ astrogliosis in coronal sections of AD+ mice treated with ETP69 or DMSO.

BDNF = BDNF expression in hippocampus; type: in vivo; conditions: dentate gyrus and other hippocampal regions, 18-mo-old AD-Tg mice, single ETP69 injection (FIG. 22)
Description: as §4

BDNF pathway = assay: Ingenuity pathway analysis of proteome data, BDNF pathway; set-up: species or system mice; conditions: FIG. 19B, p<0.0001
From the text: (§6) FIGS. 19A, 19B, and 20 include global proteome data from a mass spectrometry analysis. […] Some of these proteins, such as HPX, may be involved in anti-oxidative-stress or anti-inflammatory pathways.

GFAP = assay: GFAP+ astrogliosis (immunohistochemistry, western blot); type: in vivo, mice
From the text: as §5

ADtg mice [3] = assay: Open Field-Barnes Maze test; type: in vivo
Description: as §1
The results of the Open Field-Barnes Maze test indicate hippocampal-based spatial learning and memory.
as §2
The results of the Open Field Barnes Maze test indicate hippocampal-based spatial memory and learned. […] A comparison of results of single (S), boost (B) and repeated (R) injections is depicted in FIG. 11D-11H.
(§7) 18 month old wildtype and AD+ mice were administered an oral dose of 50 mg/kg ETP69 or oraB once a day for 4 weeks. The experimental protocol is depicted in FIG. 23.
On days 4-7 mice were tested on the training phase of the Barnes Maze (FIG. 27A). On day 10, mice were tested on the retention phase. On days 11-12, mice were tested on the reversal phase. Results are depicted in FIG. 27B-27E.

[4] = tested on: 6E10+ amyloid-beta plaques; assay: Immunohistochemistry of 6E10+ amyloid-beta plaques; type: in vivo, mice
From the text: as §5, with “FIG.” for “18 month old AD+ mice brains were stained for neuronal H3K9me3 and DAPI. FIG.”

[5] = tested on: proteins related to learning, cognition, conditioning, anxiety; assay: Ingenuity analysis of behavioral pathways; set-up: species or system mice; conditions: FIG. 20
From the text: as §6

ADtg mice [6] = assay: Y-maze test; type: in vivo
[7] = humans; cited from earlier work
Iba1 = Iba1 immunohistochemistry; type: in vivo; conditions: 14 month old AD+ mice, compared to untreated AD+ mice (FIG. 18E)
dendritic spines = assay: Golgi-Cox staining of brain sections (dendritic spines); type: in vivo, mice
Description: as §1
Chromium salts which bind to proteins in the neuron are randomly formed during the impregnation, then transformed to black mercuric sulfide deposits upon alkali treatment (Ramón-Moliner, 1970; Špaček, 1989; Rosoklija et al., 2014). The architecture of the impregnated neuron, including cell somas, axons, dendrites and spines, could be easily visualized. It is expected that qualitative observations by these measures of brains from ADtg mice treated with ETP69 will show higher spine density as compared to brains of DMSO-injected control ADtg mice. FIG. 7A-7D include Golgi-Cox stain images of whole neurons and their dendritic projections.
The right brain hemispheres of 18 month old mice were stained with the Golgi-Cox method to detect the cytoarchitecture and morphology of neurons. FIG. 13A depicts representative images of the cingulate cortex of mice administered DMSO or ETP69 and FIG. 13B depicts a representative image of the hippocampal area of a mouse treated with ETP69.

AD+ mice = assay: Visual stimuli X-maze, contrast mode; type: in vivo; conditions: 18 mo, i.p. 10 mg/kg, contrast mode (FIG. 10E-10F)
Description: as §2
(§8) FIG. 10A-10D depicts the results of the mice on the color mode of the visual stimuli X-maze test. […] FIG. 10E-10F depict the results of the contrast mode of the visual stimuli X-maze test.

global proteome = assay: Global proteome mass spectrometry analysis of brains; type: in vivo, mice
From the text: Overall, the experiments in these examples from multiple cohorts of 14- and 18-month-old murine models of AD (AD+ mice) and age/gender-matched control mice provide support that by inhibiting the enzyme SUV39H1 that regulates H3K9me3 via ETP69 compound (AKA NT1721), the chromatin state of subjects may be altered, and memory and synaptic plasticity may be restored in aging and AD brains. The therapeutic usefulness of ETP69 has been shown in the experiments described in these examples, in both aged WT mice and the well-established transgenic mouse models of AD (APPSWE/PS1ΔE9, AD+ mice), following a single (S), a boost (B), or once a week repeated (R) i.p. injections of ETP69. […] Additionally, in investigation of whole proteome profiles by mass spectrometry identified some mechanisms of action for ETP69 in the aged WT and AD+ mice.
as §6

ADtg mice [8] = assay: Visual X maze (visual stimuli X-maze), color mode; type: in vivo
Description: as §1
The results of the Koronyo's Visual X Maze (color) indicate visual-cognitive memory and learning.
as §2, §8, §3
Mice were tested for visual-cognitive memory and learning using a visual X maze.
as §7
On day 1, the mice were tested in the open field test as depicted in FIG. 24A. Rearing and total locomotor activity were measured in mice administered oraB and ETP69 (FIG. 24B-24G). On day 2, mice were tested in the color visual-stimuli X-maze. […] On day 3, mice were tested in the contrast visual-stimuli X-maze. Results are depicted in FIG. 26A-26E.

[9] = ADtg mice, 18 months, injection of 10 mg/kg, compared with vehicle treated mice (FIG. 5A-5C)
[10] = cingulate cortex and hippocampus, 18 month old mice (FIG. 13C-13D)
[11] = AD+ mice, 18 mo, i.p. 10 mg/kg, color mode (FIG. 10A-10D)
[12] = ADtg mice, 18 months, injection of 10 mg/kg, compared with vehicle treated mice (FIG. 4A-4J)

CN1C(=O)[C@@]23C[C@](C)(C#N)[C@H](c4ccc5c(c4)OCO5)N2C(=O)[C@]1(C)SS3 (racemic) [ETP69, Rac-(3S,6S,7S,8aS)-6-(benzo[d][1,3]dioxol-5-yl)-2,3,7-trimethyl-1,4-dioxohexahydro-6H-3,8a-epidithiopyrrolo[1,2-a]pyrazine-7-carbonitrile]
freezing time (ADtg mice [1]; 14 month old AD+ mice, ETP69 injection (FIG. 17A-17B)): increase | freezing time (ADtg mice [1]; AD+ mice, 18 mo, i.p. 10 mg/kg (FIG. 12)): increased | freezing time (ADtg mice [1]; ADtg mice, 18 months, injection of 10 mg/kg (FIG. 6A-6B)): increased | VGF expression (VGF): Marked increases | effects on cerebral macrophages, microglia, and astrocytes [2]: dramatic effects | H3K9me3 (H3K9me3; 14 month old AD+ mice, compared to untreated AD+ mice (FIG. 18B)): decrease | H3K9me3 staining (H3K9me3; 18 month old AD+ mice, cortex and hippocampus (FIG. 14C)): significant decrease | BDNF expression (BDNF): Marked increases | BDNF pathway activation Z-score (BDNF pathway): 2.359 | GFAP (GFAP; 14 month old AD+ mice, compared to untreated AD+ mice (FIG. 18D)): decrease | decrease of GFAP irradiance (GFAP; 18 month old AD+ mice, cingulate cortex (FIG. 14F)): 58% | memory retention (ADtg mice [3]; AD+ mice, 18 mo, i.p. 10 mg/kg, compared to AD+ mice treated with DMSO (FIG. 11A-11C)): improvement | incorrect entries (ADtg mice [3]; [9]): fewer | latency (ADtg mice [3]; [9]): reduced | memory retention (ADtg mice [3]; [9]): improvement | reversal of cognitive deficits (ADtg mice [3]; old AD-model mice (18 month), oral 50 mg/kg once a day for 4 weeks, Barnes Maze (FIG. 27B-27E)): significant reversal | 6E10 ([4]; 14 month old AD+ mice, compared to untreated AD+ mice (FIG. 18C)): decrease | decrease in the amount of 6E10 amyloid plaques ([4]; brains of 18 month old AD+ mice (FIG. 14E)): 42% | proteins related to conditioning, anxiety, and other behaviors [5]: inhibition | proteins related to learning and cognition [5]: activation | percent alternation (ADtg mice [6]; AD+ mice, 18 mo, i.p. 10 mg/kg, vs AD+ DMSO (FIG. 9B)): significant increase | percent spontaneous alternation (ADtg mice [6]; ADtg mice, 18 months, injection of 10 mg/kg ETP69, compared with vehicle treated mice (FIG. 3A-3B)): improvement | number of total entries (ADtg mice [6]; both wildtype and AD+ mice, 18 mo, i.p. 10 mg/kg in DMSO, single/boost/repeated (FIG. 9A), indicates decreased locomotor activity): decreased | safety and tolerability [7]: generally safe and tolerable | Iba1 (Iba1): decrease | association of spine preservation with errors in the Barnes maze test (dendritic spines; 18 month old mice, correlation (FIG. 13G)): reduced errors | ratio of thin spines to all spines (dendritic spines; AD+ mice, 18 month, compared to AD+ mice administered DMSO alone (FIG. 13E-13F)): significant increase | dendritic spines (dendritic spines; [10]): increase | thin (immature) spines (dendritic spines; [10]): increase | percent alternation (AD+ mice): significant increase | proteins upregulated, AD+ mice treated with ETP69 compared to untreated AD+ mice (global proteome; brains, FIG. 19A): VAV3, CORO2A and HPX | most up-regulated proteins following ETP69 administration (global proteome; whole proteome profiles by mass spectrometry, aged WT and AD+ mice): VGF and HP/HPX | alternation (ADtg mice [8]; 14 month old AD+ mice, ETP69 injection, compared to untreated mice, mode not stated (FIG. 16A-16D)): improvements | bidirectional movement (ADtg mice [8]; [11]): significant increase | percent alternation (ADtg mice [8]; [11]): significant increase | color bidirectional (ADtg mice [8]; [12]): improvements | percent spontaneous alternation (ADtg mice [8]; [12]): improvements | reversing cognitive dysfunction (ADtg mice [8]; old mice (18 month), oral 50 mg/kg in oraB once a day for 4 weeks, color visual-stimuli X-maze (FIG. 25A-25E)): beneficial effects
